This assay has as its target T1, FL hMALT1 enzyme (Homo sapiens, UniProt Q9UDY8).
T1 sequence (Q9UDY8 1-824): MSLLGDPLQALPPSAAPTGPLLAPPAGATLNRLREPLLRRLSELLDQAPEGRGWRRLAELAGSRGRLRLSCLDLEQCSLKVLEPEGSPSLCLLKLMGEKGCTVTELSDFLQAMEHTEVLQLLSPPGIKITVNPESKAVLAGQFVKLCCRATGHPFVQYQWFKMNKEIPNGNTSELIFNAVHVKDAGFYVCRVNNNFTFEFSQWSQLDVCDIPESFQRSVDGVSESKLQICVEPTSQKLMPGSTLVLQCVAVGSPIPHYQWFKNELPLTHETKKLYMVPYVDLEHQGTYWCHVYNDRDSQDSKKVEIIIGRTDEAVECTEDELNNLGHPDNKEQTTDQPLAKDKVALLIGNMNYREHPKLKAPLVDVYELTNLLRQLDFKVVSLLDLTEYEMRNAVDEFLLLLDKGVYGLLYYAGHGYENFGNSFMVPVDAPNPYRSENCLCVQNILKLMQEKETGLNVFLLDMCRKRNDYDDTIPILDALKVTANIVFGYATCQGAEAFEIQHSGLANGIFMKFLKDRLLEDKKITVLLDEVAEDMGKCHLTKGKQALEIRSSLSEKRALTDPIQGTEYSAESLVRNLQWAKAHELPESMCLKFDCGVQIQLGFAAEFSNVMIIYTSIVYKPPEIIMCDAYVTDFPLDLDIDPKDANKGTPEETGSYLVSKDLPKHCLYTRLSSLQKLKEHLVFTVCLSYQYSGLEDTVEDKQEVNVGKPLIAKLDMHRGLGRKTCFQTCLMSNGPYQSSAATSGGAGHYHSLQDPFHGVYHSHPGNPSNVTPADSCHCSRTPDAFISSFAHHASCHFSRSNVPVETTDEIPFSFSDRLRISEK
Description: biochemical.

In general, IC50 refers to the midpoint of a concentration-inhibition curve. Read a low IC50 as inhibition by little substance.
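Also: Cell-free protease assay: enzyme preincubated with compound 30 min at room temperature, then cleavage of fluorogenic Ac-LVSR-AMC substrate (100 µM) tracked by fluorescence (ex 360/em 460 nm).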

Description: MALT1 protease activity was assessed in vitro by measuring the cleavage of a fluorogenic tetrapeptide substrate.
For a higher sensitivity assay, commercially available FL hMALT1 enzyme (Abcam, 1-10 nM) was incubated with substrate (Ac-LVSR-AMC, 100 μM) in reaction buffer comprising 50 mM HEPES (pH7.0), 25 mM KCl, 0.1% (v/v) CHAPS, 1 mM TCEP and 0.7 M sodium citrate.
Test compounds dissolved in DMSO were dispensed into assay plates (384-well, black, shallow ProxiPlates). 7 μl enzyme solution was added and incubated at room temperature for 30 minutes to allow compound binding to occur. 2 μl substrate solution was then added and the fluorescence (excitation 360 nm, emission 460 nm) read every 15 minutes using a suitable plate reader. Final assay DMSO concentration was 1%. […] IC50 values were calculated using GraphPad Prism using a 4-parameter non-linear regression curve fit.

In the case of `CN(C(=O)C1CCS(=O)(=O)CC1)[C@@H](c1ccc(NC2Cc3cccc(C(F)(F)F)c3C2)nc1)C(F)(F)F` (single isomer, unassigned) [Example 280], the IC50 was 860 nM.
Consider `CN(C(=O)CO)[C@@H](c1ccc(NC2Cc3ccc(Cl)c(F)c3C2)cn1)C(F)(F)F` (single isomer, unassigned) [Example 367], for which the IC50 amounted to 310 nM.
`Cc1ncc(C(=O)N(C)[C@@H](c2ccc(NC3Cc4ccc(Cl)c(F)c4C3)cn2)C(F)(F)F)cn1` (single isomer, unassigned) [Example 348] gave an IC50 of 410 nM.
Take `CN(C(=O)[C@H]1C[C@]2(CCN2C)C1)[C@@H](c1ccc(NC2Cc3ccccc3C2(C)C)cn1)C(F)(F)F` (single isomer, unassigned) [Example 158]: half-maximal inhibition (IC50) was put at 440 nM.
`CN(C(=O)C1CC2(CCC(=O)N2)C1)[C@@H](c1ccc(NC2Cc3ccc(Cl)c(Cl)c3C2)cn1)C(F)(F)F` (single isomer, unassigned) [Example 340] registered an IC50 of 560 nM.
For `CN(C(=O)C1CCS(=O)(=O)CC1)[C@@H](c1ccc(NC2Cc3ccc(C4CC4)cc3C2)cn1)C(F)(F)F` (single isomer, unassigned) [Example 307], the midpoint of inhibition, the IC50, lay at 220 nM.
For `CNC(=O)C1(C(=O)N(C)[C@@H](c2ccc(NC3Cc4ccc(Cl)c(F)c4C3)cn2)C(F)(F)F)CC1` (stereo partly drawn) [Example 368, N-((1S)-1-(5-((5-Chloro-4-fluoro-2,3-dihydro-1H-inden-2-yl)amino)pyridin-2-yl)-2,2,2-trifluoroethyl)-N,N′-dimethylcyclopropane-1,1-dicarboxamide] the value was 270 nM.
Take `CN(C(=O)C1CN2CCC1CC2)[C@@H](c1ccc(NC2Cc3ccccc3C2(C)C)nc1)C(F)(F)F` (single isomer, unassigned) [Example 122]: the half-inhibitory concentration (IC50) came to 1140 nM.
For `CN(C(=O)C1CCS(=O)(=O)C1)[C@@H](c1ccc(NC2Cc3ccc(Cl)c(Cl)c3C2)cn1)C(F)(F)F` (single isomer, unassigned) [Example 359], the IC50 came out at 480 nM.
`CN(C(=O)C1CCNCC1)[C@@H](c1ccc(NC2Cc3ccccc3C2(C)C)cn1)C(F)(F)F` (single isomer, unassigned) [Example 147] registered an IC50 of 260 nM. Compared with the last compound, the IC50 is about 1.8-fold lower.
`CC(=O)N1CCC[C@@H]1C(=O)N(C)[C@@H](c1ccc(N[C@H]2Cc3ccccc3C2(C)C)cn1)C(F)(F)F` [Example 171, (R)-1-Acetyl-N—((S)-1-(5-(((S)-1,1-dimethyl-2,3-dihydro-1H-inden-2-yl)amino)pyridin-2-yl)-2,2,2-trifluoroethyl)-N-methylpyrrolidine-2-carboxamide] returned an IC50 of 210 nM.
For `CN(C(=O)C1CN(C(=O)C2COC2)C1)[C@@H](c1ccc(NC2Cc3ccc(Cl)c(F)c3C2)cn1)C(F)(F)F` (single isomer, unassigned) [Example 370] the value was 1370 nM; for `CN(C(=O)CN1CCNC1=O)[C@@H](c1ccc(NC2Cc3ccccc3C2(C)C)cn1)C(F)(F)F` (single isomer, unassigned) [Example 246], 330 nM; for `CN(C(=O)[C@H]1C[C@H](O)C1)[C@@H](c1ccc(NC2Cc3ccc(Cl)c(F)c3C2)cn1)C(F)(F)F` (single isomer, unassigned) [Example 375], 1320 nM.
Take `CN(C(=O)CN1CCNC1=O)[C@@H](c1ccc(NC2Cc3ccccc3C2(C)C)cn1)C(F)(F)F` (single isomer, unassigned) [Example 245]: the IC50 came to 130 nM. This IC50 is about 10-fold lower than that of the compound before.
The compound `CN(C(=O)CC#N)[C@@H](c1ccc(NC2Cc3ccc(Cl)c(Cl)c3C2)cn1)C(F)(F)F` (single isomer, unassigned) [Example 349] yielded a concentration for half-maximal inhibition (IC50) of 1040 nM.
`CC(=O)N1CCC12CC(C(=O)N(C)[C@@H](c1ccc(NC3Cc4ccccc4C3(C)C)cn1)C(F)(F)F)C2` (single isomer, unassigned) [Example 236] returned an IC50 of 210 nM.
In turn, `CN(C(=O)[C@H]1CCC(=O)NC1)[C@@H](c1ccc(NC2Cc3ccc(Cl)c(F)c3C2)cn1)C(F)(F)F` (single isomer, unassigned) [Example 336] displayed a concentration for half-maximal inhibition (IC50) of 690 nM.
The compound `CN(C(=O)C1CCS(=O)(=O)CC1)[C@@H](c1ccc(NC2Cc3ccc(OC(F)F)cc3C2)cn1)C(F)(F)F` (stereo partly drawn) [Example 324, N-((1S)-1-(5-((5-(Difluoromethoxy)-2,3-dihydro-1H-inden-2-yl)amino)pyridin-2-yl)-2,2,2-trifluoroethyl)-N-methyltetrahydro-2H-thiopyran-4-carboxamide 1,1-dioxide] registered a half-maximal inhibitory concentration (IC50) of 1000 nM.
In the case of `COCc1c(Cl)ccc2c1CC(Nc1ccc([C@H](N(C)C(=O)C3CCS(=O)(=O)CC3)C(F)(F)F)nc1)C2` (stereo partly drawn) [Example 356, N-((1S)-1-(5-((5-Chloro-4-(methoxymethyl)-2,3-dihydro-1H-inden-2-yl)amino)pyridin-2-yl)-2,2,2-trifluoroethyl)-N-methyltetrahydro-2H-thiopyran-4-carboxamide 1,1-dioxide], the IC50 turned out to be 210 nM.
Turning to `CN(C(=O)C1CCS(=O)(=O)CC1)[C@@H](c1ccc(NC2Cc3cccc(OC(F)F)c3C2)cn1)C(F)(F)F` (stereo partly drawn) [Example 333, N-((1S)-1-(5-((4-(Difluoromethoxy)-2,3-dihydro-1H-inden-2-yl)amino)pyridin-2-yl)-2,2,2-trifluoroethyl)-N-methyltetrahydro-2H-thiopyran-4-carboxamide 1,1-dioxide], the IC50 came out at 160 nM.
Regarding `CN(C(=O)C1CN(S(C)(=O)=O)C1)[C@@H](c1ccc(NC2Cc3ccccc3C2(C)C)cn1)C(F)(F)F` (single isomer, unassigned) [Example 210], the IC50 amounted to 200 nM.
In the case of `CN(C(=O)CNS(C)(=O)=O)[C@@H](c1ccc(NC2Cc3ccc(Cl)c(Cl)c3C2)cn1)C(F)(F)F` (single isomer, unassigned) [Example 380], the IC50 was found to be 1870 nM.
Consider `CN(C(=O)C1CCS(=O)(=O)CC1)[C@@H](c1ccc(NC2Cc3ccc(Cl)c(C4CC4)c3C2)cn1)C(F)(F)F` (single isomer, unassigned) [Example 305], for which the IC50 amounted to 300 nM.
For `CN(C(=O)C1CC2(CCN2)C1)[C@@H](c1ccc(NC2Cc3ccccc3C2(C)C)cn1)C(F)(F)F` (single isomer, unassigned) [Example 154] the value was 150 nM.
Compound `CN(C(=O)C1CCS(=O)(=O)CC1)[C@@H](c1ccc(NC2Cc3cc(F)cc(Cl)c3C2)cn1)C(F)(F)F` (single isomer, unassigned) [Example 287] gave an IC50 of 290 nM.
Consider `CN(C(=O)C1CCS(=O)(=O)CC1)[C@@H](c1ccc(NC2Cc3cc(Cl)cc(Cl)c3C2)cn1)C(F)(F)F` (single isomer, unassigned) [Example 283], for which the concentration for half-maximal inhibition (IC50) turned out to be 910 nM.
To `CNC(=O)N1CC(C(=O)N(C)[C@@H](c2ccc(NC3Cc4ccc(Cl)c(Cl)c4C3)cn2)C(F)(F)F)C1` (single isomer, unassigned) [Example 334] belongs 300 nM; to `CN(C(=O)C1CN2CCC1CC2)[C@@H](c1ccc(NC2Cc3ccccc3C2(C)C)cn1)C(F)(F)F` (single isomer, unassigned) [Example 138], 780 nM; to `CN(C(=O)C1CN(C(=O)CO)C1)[C@@H](c1ccc(NC2Cc3ccc(Cl)c(Cl)c3C2)cn1)C(F)(F)F` (single isomer, unassigned) [Example 378], 1290 nM.
`CN(C(=O)C1CCS(=O)(=O)CC1)[C@@H](c1ccc(NC2Cc3ccc(Cl)c(C(F)(F)F)c3C2)cn1)C(F)(F)F` (single isomer, unassigned) [Example 311] displayed an IC50 of 300 nM.
`CN(C(=O)C1CN(C(=O)CO)C1)[C@@H](c1ccc(NC2Cc3ccc(Cl)c(Cl)c3C2)cn1)C(F)(F)F` (single isomer, unassigned) [Example 379] displayed an IC50 of 46 nM.
To `CN(C(=O)C1CCS(=O)(=O)CC1)[C@@H](c1ccc(NC2Cc3ccc(F)c(Cl)c3C2)cn1)C(F)(F)F` (single isomer, unassigned) [Example 266] belongs 1600 nM.
The compound `CN(C(=O)[C@H]1CCC(=O)NC1)[C@@H](c1ccc(NC2Cc3ccc(Cl)c(Cl)c3C2)cn1)C(F)(F)F` (single isomer, unassigned) [Example 320] yielded an IC50 of 750 nM. This IC50 lies about 2.1-fold lower than the previous one.
In turn, `CN(C(=O)C1CC2(CCC(=O)N2)C1)[C@@H](c1ccc(NC2Cc3ccccc3C2(C)C)cn1)C(F)(F)F` (single isomer, unassigned) [Example 231] showed an IC50 of 110 nM.
Turning to `CN(C(=O)[C@H]1CCC(=O)NC1)[C@@H](c1ccc(NC2Cc3ccc(Cl)c(F)c3C2)nc1)C(F)(F)F` (single isomer, unassigned) [Example 388], half-maximal inhibition (IC50) was put at 490 nM. This IC50 is about 4.5-fold higher than that of the compound before.
For the compound `Cc1nnc(N2CC(C(=O)N(C)[C@@H](c3ccc(NC4Cc5ccc(Cl)c(F)c5C4)cn3)C(F)(F)F)C2)o1` (single isomer, unassigned) [Example 364], 120 nM corresponded to half-maximal inhibition (IC50).
As to `CC(C)c1c(Cl)ccc2c1CC(Nc1ccc([C@H](N(C)C(=O)C3CCS(=O)(=O)CC3)C(F)(F)F)nc1)C2` (stereo partly drawn) [Example 369, N-((1S)-1-(5-((5-Chloro-4-isopropyl-2,3-dihydro-1H-inden-2-yl)amino)pyridin-2-yl)-2,2,2-trifluoroethyl)-N-methyltetrahydro-2H-thiopyran-4-carboxamide 1,1-dioxide], inhibition was half-maximal at 72 nM (IC50).

The values above are taken from patent publication US20260184687A1, “DIHYDROINDENE DERIVATIVES AS MALT1 INHIBITORS” (C4X Discovery Limited, priority 2022, published 2026).
